Reference: PubChem BioAssay (NCI)
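Where inhibition never reached the appropriate level, the endpoint shown equals the highest concentration tested. Otherwise, values were interpolated linearly from a five-concentration, 48-hour dose response in 96-well plates. Abbreviation: GI50, concentration required for 50% inhibition of growth. TGI marks complete inhibition of growth.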

What was measured:
Assay in all cases: DTP human tumour cell line panel, 48 h
[1] = test system: CAKI-1 renal
[2] = test system: LOX IMVI melanoma
[3] = test system: OVCAR-4 ovarian
[4] = test system: HCT-15 colon
[5] = test system: MALME-3M melanoma
[6] = test system: RPMI-8226 leukemia
[7] = test system: SF-295 CNS
[8] = test system: HT29 colon
[9] = test system: OVCAR-5 ovarian
[10] = test system: NCI/ADR-RES ovarian

Structure (SMILES)	TGI [1]	TGI [2]	TGI [3]	TGI [4]	TGI [5]	TGI [6]	TGI [7]	TGI [8]	TGI [9]	GI50 [2]	GI50 [9]	GI50 [4]	GI50 [10]	TGI [10]	GI50 [6]	GI50 [7]	GI50 [8]	GI50 [1]	GI50 [3]
O=c1[nH]c2cc(Cl)ccc2nc1/C(=N\O)C(O)c1ccc([N+](=O)[O-])cc1 (configuration not stated)	> 100 µM	> 100 µM	> 100 µM	> 100 µM	> 100 µM	> 100 µM	> 100 µM	> 100 µM											
COc1cc(CNC2c3cc4c(cc3C(c3cc(OC)c(OC)c(OC)c3)[C@H]3C(=O)OCC23)OCO4)cc(OC)c1OC (some centres not stated)		> 100 µM		> 100 µM	> 100 µM	79.2 µM	0.677 µM	19.5 µM	> 100 µM										
C[N+](C)(C)CC(=O)N/N=C(\C(=O)NC1=C(Cl)C(=O)c2ccccc2C1=O)C(C#N)c1csc(-c2ccc([N+](=O)[O-])cc2)n1 (configuration not stated)	> 100 µM	> 100 µM	> 100 µM	> 100 µM	> 100 µM	> 100 µM	> 100 µM	> 100 µM	> 100 µM										
CN(C)c1nc(=Nc2cccc(Cl)c2)ss1	33.4 µM	27.8 µM	29.8 µM	27.9 µM	27.1 µM	17.5 µM	56.5 µM	36.3 µM	74.6 µM										
CCOC(=N)/C(=C1\OC(N)=C(c2ccc(Cl)cc2)C1=O)c1ccc(Cl)cc1	62.8 µM	28.1 µM	31.9 µM		28.2 µM	47.6 µM	55.8 µM	52.6 µM	35 µM										
O=S1Nc2c(Cl)cc(Cl)c3c(Cl)cc(Cl)c(c23)N1	95.2 µM	> 100 µM	91.2 µM	> 100 µM	> 100 µM	> 100 µM	> 100 µM	> 100 µM	> 100 µM										
Cc1cc(C)c(Cn2cnc3c(Cl)ncnc32)c(C)c1CCl		8.69 µM		18.8 µM		> 100 µM	> 100 µM	> 100 µM	> 100 µM	0.652 µM	> 100 µM	0.343 µM	> 100 µM	> 100 µM	24.4 µM	> 100 µM	25.8 µM		
CNC(=O)Cc1nc(-c2cccc(NS(=O)(=O)c3c(F)cccc3F)c2F)c(-c2ccnc(Nc3ccccc3)n2)s1	> 50 µM	5.38 µM	> 50 µM	> 50 µM		> 47.9 µM	> 50 µM	> 50 µM	> 50 µM	0.0917 µM	2.85 µM	7.37 µM	> 50 µM	> 50 µM	14.3 µM	20.5 µM	0.0327 µM	0.385 µM	> 33.8 µM
CC1=NN(C(=O)c2ccc([N+](=O)[O-])cc2)C(=O)C1N=Nc1ccccc1C(=O)O (configuration not stated)	> 100 µM				> 100 µM	> 100 µM	> 100 µM	> 100 µM	> 100 µM										
COc1cccc(/C=C/C(=O)c2ccc(Cl)cc2Cl)c1	29.6 µM	> 50 µM	41 µM	> 50 µM		3.86 µM	> 50 µM	> 50 µM	43.7 µM	15.3 µM	13.6 µM	13.9 µM	11.6 µM	33.1 µM	1.1 µM	28.2 µM	15.1 µM	13.1 µM	10.9 µM
Cc1cn2c(/C=N/N=C(N)N)c(-c3cccs3)nc2s1	27.5 µM			18.4 µM		3.5 µM	14.4 µM	7.14 µM	7.37 µM		2.37 µM	4.3 µM	15.3 µM	28.7 µM	1.48 µM	3.28 µM	2.1 µM	13.7 µM	
COC1=CC(=O)C2C(C1=O)C(c1ccccc1)[C@H]2C (some centres not stated)		> 100 µM		35.9 µM	57 µM	> 100 µM	> 100 µM	> 100 µM	> 100 µM										
C/C=C/CC(C)[C@@H](O)[C@H](NC)C(=O)O (some centres not stated)	> 100 µM	> 100 µM	> 100 µM	> 100 µM	> 100 µM	> 100 µM	> 100 µM	> 100 µM	> 100 µM										
COC(=O)C1[C@H](c2cc(OC)c(OC)c(OC)c2)OC(=O)C1(C(=O)OC)C(=O)c1ccc2c(c1)OCO2 (some centres not stated)	> 100 µM	> 100 µM	> 100 µM	> 100 µM	> 100 µM	> 100 µM	> 100 µM	> 100 µM	> 100 µM										
CCCN(CCCC(NC(C)=O)C(=O)NCc1ccccc1)C(=O)NCCCl (configuration not stated)	> 100 µM		> 100 µM	> 100 µM	> 100 µM	> 100 µM	> 100 µM	> 100 µM											
CC(=O)OC1CC2C(C)(C)C(=O)C=C[C@]2(C)C2CCC3(C)C(=CC(=O)C3c3ccoc3)[C@]12C (some centres not stated)	> 100 µM	31.4 µM	50.5 µM	26.1 µM	34.4 µM	36.1 µM	28.7 µM	32.1 µM	37.8 µM										
Cc1cc(N(CCC#N)S(C)(=O)=O)ccc1C=Nc1ccc(C(=O)NN2C(=O)/C(=C/c3ccc(N(CCC#N)CCC#N)cc3C)N=C2c2cc([N+](=O)[O-])ccc2Cl)cc1	> 100 µM	> 100 µM	> 100 µM	> 100 µM	> 100 µM	> 100 µM		> 100 µM	> 100 µM										
O=[N+]([O-])CCc1cccc([N+](=O)[O-])c1	> 100 µM	> 100 µM	> 100 µM	> 100 µM	> 100 µM	> 100 µM	> 100 µM	> 100 µM	> 100 µM										
COC(=O)C(Cc1nc2ccccc2[nH]c1=O)C(=O)C(=O)Nc1ccc([N+](=O)[O-])cc1[N+](=O)[O-] (configuration not stated)	> 100 µM	44.4 µM	64.1 µM	34.5 µM	34.3 µM	85.1 µM	49.9 µM	35 µM	51 µM										
CCOC(=N)CC(=O)c1ccccc1	> 100 µM	> 100 µM	> 100 µM		> 100 µM		> 100 µM	> 100 µM	> 100 µM										
CCc1cc(CCC(=O)Nc2c(C)cccc2C)[nH]n1	> 100 µM		> 100 µM	> 100 µM	> 100 µM	> 100 µM	> 100 µM	> 100 µM	> 100 µM										
